Test results published in patent US10604523B2, “1-aryl-4-methyl-[1,2,4]triazolo[4,3-a]quinoxaline derivatives” (Janssen Pharmaceutica NV, priority 2011, dated 2020).

Assays:
[1] = molecular target: T1, Rat recombinant PDE10A (rPDE10A2) (Rattus norvegicus, UniProt Q9QYJ6); assay: In vitro assay PDE10A (SPA, 3H-cAMP); type: biochemical; conditions: -log IC50 expressed in mol/L, rPDE10A2, 60 nM cAMP
T1 construct: made in house; host or cells: Sf9 insect cells (baculovirus)
T1 sequence (Q9QYJ6 1-794): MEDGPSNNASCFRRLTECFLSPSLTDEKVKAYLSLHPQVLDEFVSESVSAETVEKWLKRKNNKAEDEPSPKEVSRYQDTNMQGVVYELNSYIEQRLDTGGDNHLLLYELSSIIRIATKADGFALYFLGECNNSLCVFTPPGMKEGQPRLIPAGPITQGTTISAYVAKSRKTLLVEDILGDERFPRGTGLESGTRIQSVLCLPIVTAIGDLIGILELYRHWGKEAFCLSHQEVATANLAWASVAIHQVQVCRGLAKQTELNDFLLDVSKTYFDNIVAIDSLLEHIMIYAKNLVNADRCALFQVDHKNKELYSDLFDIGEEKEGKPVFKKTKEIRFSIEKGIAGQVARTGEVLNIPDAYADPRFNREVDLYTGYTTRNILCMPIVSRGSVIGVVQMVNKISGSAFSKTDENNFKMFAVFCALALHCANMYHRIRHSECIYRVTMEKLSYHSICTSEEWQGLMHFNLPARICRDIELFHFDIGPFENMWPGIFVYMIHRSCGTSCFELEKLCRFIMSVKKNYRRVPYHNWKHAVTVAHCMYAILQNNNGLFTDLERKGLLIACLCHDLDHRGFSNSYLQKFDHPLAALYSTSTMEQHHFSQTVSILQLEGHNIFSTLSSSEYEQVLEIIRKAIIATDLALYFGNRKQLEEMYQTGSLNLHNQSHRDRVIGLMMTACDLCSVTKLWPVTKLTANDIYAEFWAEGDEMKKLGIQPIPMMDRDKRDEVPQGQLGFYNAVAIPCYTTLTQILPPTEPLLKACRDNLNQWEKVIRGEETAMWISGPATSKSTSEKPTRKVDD

[2] = test system: cAMP and cGMP levels in the rat brain (hippocampus and striatum); assay: Effect of PDE-inhibitors ex-vivo studies in rat: cAMP and cGMP levels in brain; conditions: 10 mg/kg s.c., -1 h
Protocol: Upon arrival, the animals (body weight 210-240 g) were housed in groups of 5 and fed normal chow at libitum.
Compounds and/or solvent were administered either orally, subcutaneously or IV. […] After microwave, the rats were decapitated and the heads cooled immediately with ice cold physiological saline. […] 10 vol (w/v) of 0.1N HCl were added. The tissue was homogenized for 3 min at 30 Hz using a Tissuelyser from Qiagen.
The homogenate was transferred into an Eppendorf tube (1.5 ml) and after centrifugation for 15 min at 1600 g in a pre-cooled (4C) Eppendorf centrifuge, the supernatant was collected and stored at −80° C. until analysis.
The cAMP and cGMP levels were measured in the rat brain (hippocampus and striatum) to establish in vivo target engagement and central pharmacological effect of PDE2 inhibition.

CCCCOc1ccc(Cl)c(-c2nnc3c(C)nc4ccc(CN(C)C)cc4n23)c1 [Compound B-88]
IC50 ([1]; read-out: PIC50 PDE10 (converted)): 2140 nM | Hippocampus cAMP (% of Control) [2]: 117 ± 20 % of Control | Hippocampus cGMP (% of Control) [2]: 150 ± 42 % of Control | Striatum cAMP (% of Control) [2]: 88 ± 12 % of Control | Striatum cGMP (% of Control) [2]: 121 ± 20 % of Control

CCCCOc1cncc(-c2nnc3c(C)nc4ccc(CN(C)C)cc4n23)c1 [Compound B-197]
PIC50 PDE10 [1]: 5.03 | Hippocampus cAMP (% of Control) [2]: 122 ± 10 % of Control | Hippocampus cGMP (% of Control) [2]: 104 ± 32 % of Control | Striatum cAMP (% of Control) [2]: 89 ± 6 % of Control | Striatum cGMP (% of Control) [2]: 128 ± 26 % of Control
